Assay results reported in patent US20230233566A1, “INHIBITION OF BMI1 ELIMINATES CANCER STEM CELLS AND ACTIVATES ANTITUMOR IMMUNITY” (The Regents of the University of California, priority 2020, published 2023).

Legend:
xenografted HNSCC = conditions: human tumor cells in immunodeficient mice; cited from earlier work
cytosolic dsDNA = experiment: Cytosolic dsDNA staining (PicoGreen/MitoTracker); assay type: cell-based, human; conditions: SCC23 and SCC1 cells
Description: Following the treatment, SCC23 and SCC1 cells were incubated with culture media containing PicoGreen (dsDNA stain, 200-fold dilution, Thermo Fisher Scientific, Cat #P11496) and MitoTracker ([…], 100 nM, Thermo Fisher Scientific, Cat #M7512). One hour after incubation, cells were fixed with 4% paraformaldehyde for 10 min. Cells were then washed twice with PBS and stained with DAPI (Sigma-Aldrich, Cat #D9542) and mounted with SlowFade Antifade Reagents (Thermo Fisher Scientific, Cat #536937). Staining was imaged and assessed using a Leica SP5X laser scanning confocal microscope.

[1] = tested on: CSCs isolated from human colorectal cancers; conditions: cited from earlier work
pIRF3 = pIRF3 immunofluorescent staining in 4NQO-induced HNSCC; design: species or system mouse; conditions: 4NQO-induced HNSCC in vivo
[2] = tested on: CCL5, CXCL9, CXCL10, and CXCL11; experiment: qRT-PCR and ELISA of CCL5, CXCL9, CXCL10, CXCL11 in SCC cells; assay type: cell-based, human; conditions: SCC1 and SCC23 cells
Description: For qRT-PCR, total RNA was prepared using TRIzol reagent (Thermo Fisher Scientific Cat #15596026), and 1 μg of RNA was reversely transcribed with random primer (Thermo Fisher Scientific Cat #48190011), dNTP mix (Thermo Fisher Scientific, Cat #18427013), and M-MuLV Reverse Transcriptase (New England Biolabs, Cat #M0253L). The levels of mRNA were […] measured using a SYBRGreen supermix (Bio-Rad, Cat #1708880). GAPDH was used as an internal control.
(§1) Cells were lysed using the radioimmunoprecipitation assay (RIPA) buffer (Sigma-Aldrich, Cat #R0278) added with a cocktail of protease inhibitors (Thermo Fisher Scientific, Cat ##78430) and phosphatase inhibitors (Sigma-Aldrich, Cat #4906845001). Protein extracts were resolved on a 10% or 15% SDS polyacrylamide gel and then transferred to a polyvinylidene difluoride membrane. Membranes were blocked with 5% milk for 1 h and incubated with primary antibodies overnight at 4° C. […] The signals were detected using the Clarity Western ECL kit (Bio-Rad, Cat #1705060). […] After treatment, supernatants were collected, and the protein levels of CCL5, CXCL9, CXCL10 and CXCL11 were measured with ELISA (R&D Systems, Cat #DRN00B, DCX900, DIP100, DCX110) according to the manufacturer's instructions.

BMI-1 = conditions: HEK293T cell line; cited from earlier work
BMI1 = experiment: Western blot of BMI1 and H2AUb in SCC23 and SCC1 cells; assay type: cell-based, human
Description: Human SCC23 and SCC1 cells were grown in DMEM containing 10% FBS and antibiotics (streptomycin and penicillin) at 37° C. in a 5% CO2 atmosphere. To generate lentiviruses, scramble control (shCtrl, Addgene, Cat #1864; see Sarbassov et al Science 2005 Feb. 18; 307(5712):1098-101) and BMI1 specific shRNA lentiviral plasmids (shBmi1, Sigma-Aldrich, Cat #TRCN0000020156, comprising […], SEQ ID NO:35) were transfected into HEK293T cells with two helper plasmids psPAX2 (Addgene, Cat #12260) and pMD2.G (Addgene, Cat #12259). Viral supernatant was harvested 72 h after transfection and passed through a 0.45 μm filter to remove cell debris and live cells. Collected lentiviruses were used directly to infect cells with the addition of polybrene (Sigma-Aldrich, Cat #H9268), or frozen at −80° C. for later use. […]
as §1, with “#4906845001).” for “#4906845001). Protein extracts were resolved on a 10% or 15% SDS polyacrylamide gel and then transferred to a polyvinylidene difluoride membrane. Membranes were blocked with 5% milk for 1 h and incubated with primary antibodies overnight at 4° C.”

SOX2+ CSCs = assay type: in vivo, mouse; conditions: only strongly stained cells counted
SCC23 cells = experiment: RNA-Seq and GO analysis in SCC23 cells; assay type: cell-based, human
Description: Total RNA was isolated from PTC209-treated or shBMI1 knockdown SCC cells using a RNeasy Micro Kit (QIAGEN, Cat #74004). RNA quality was examined using an Agilent 2100 Bioanalyzer. Library preparation using the KAPA RNA-Seq Library Preparation Kits (KAPA Biosystems, Cat #07960140001) was performed at the UCLA sequencing core facility, and RNAs were single-end sequenced on Illumina HiSeq 3000 machines. The online DAVID bioinformatics resources were used to analyze the differentially expressed genes under the category of GOTERM_BP_DIRECT. The heatmap was generated with Heatmap Builder. The raw data was deposited at the Gene Expression Omnibus (GEO) under the subseries entry GSE140433.

SMILES: COc1cc(Br)c(Nc2nc(-c3c(C)nc4ncccn34)cs2)c(Br)c1 [PTC209, N-(2,6-dibromo-4-methoxyphenyl)-4-(2-methylimidazo[1,2-a]pyrimidin-3-yl)thiazol-2-amine]
- xenografted HNSCC growth (xenografted HNSCC): inhibit xenografted HNSCC growth
- accumulation of cytosolic dsDNA (cytosolic dsDNA): induced the accumulation of cytosolic dsDNA
- colorectal tumor growth and frequency of CSCs ([1]; mouse xenograft models): inhibited colorectal tumor growth and reduced the frequency of CSCs in mouse xenograft models
- self-renewal of CSCs ([1]; xenografted nude mouse model): abolish the self-renewal of CSCs isolated from human colorectal cancers
- pIRF3 in HNSCC (pIRF3): significantly increased
- expression of CCL5, CXCL9, CXCL10, and CXCL11 [2]: significantly increased the expression of CCL5, CXCL9, CXCL10, and CXCL11 in both SCC1 and SCC23 cells
- IC50 (BMI-1): 500 nM
- BMI1 and H2AUb levels (BMI1): reduced BMI1 and H2AUb in SCC23 and SCC1 cells in a dose-dependent manner
- number of SOX2+ cells (SOX2+ CSCs): significantly reduced
- IFN-regulated chemokines (CCL5, CXCL9, CXCL10, and CXCL11), RNA-seq heatmap (SCC23 cells): significantly increased
- GO analysis of induced genes (SCC23 cells; RNA-Seq): induced the expression of genes associated with immune response and chemotaxis
